# Test results taken from patent EP1561465A2, “Methods of use of fluoroquinolone compounds against bacteria” (LG Life Sciences, Ltd., priority 1999, dated 2001).
# Where two headings read alike, the source gives them in different places.
# Experiments:
# Type in all cases: cell-based
# Streptococcus pneumoniae [1] = test: MIC by agar dilution (NCCLS), 411 isolates Buenos Aires 1998-99; conditions: Streptococcus pneumoniae, S. pneumoniae, read-out: MIC90
# Streptococcus pneumoniae [2] = test: MIC by NCCLS reference broth microdilution, 450 respiratory tract pathogens; conditions: for MIC50 / MIC90 / MIC: Streptococcus pneumoniae
# Streptococcus pyogenes = test: as above; conditions: Streptococcus pyogenes
# Haemophilus influenzae = test: as above; conditions: Haemophilus influenzae; for MIC90: read-out: MIC90
# Moraxella catarrhalis = test: as above
# Staphylococcus aureus = test: as above
# Klebsiella pneumoniae = test: as above; conditions: Klebsiella pneumoniae
# [3] = Streptococcus pneumoniae (n = 100)
# [4] = erythromycin resistant M phenotype (n = 16)
# [5] = erythromycin resistant MLSB phenotype (n = 16)
# [6] = penicillin intermediate (n = 16)
# [7] = penicillin susceptible (n = 20)
# [8] = Streptococcus pyogenes (n = 100)
# [9] = erythromycin resistant C phenotype [MLSB] (n = 20)
# [10] = erythromycin resistant I phenotype [MLSB] (n = 20)
# [11] = erythromycin resistant M phenotype (n = 20)
# [12] = Haemophilus influenzae (n = 100)
# [13] = β-lactamase positive and erythromycin resistant (n = 10)
# [14] = extended spectrum β-lactamase positive (n = 20)
smiles,measurement,setting,value
"CO/N=C(\C(=O)N[C@@H]1C(=O)N2C(C(=O)O)=C(COC(N)=O)CS[C@H]12)c1ccco1 [Cefuroxime, cefuroxime]",MIC90,Streptococcus pneumoniae [1]; Penicillin intermediate (n = 17),4 µg/mL
same,MIC90,Streptococcus pneumoniae [1]; Penicillin resistant (n = 4),4 µg/mL
same,MIC90,Streptococcus pneumoniae [1]; Penicillin susceptible (n = 69),0.03 µg/mL
same,MIC Range,Streptococcus pneumoniae [2]; [3],≤0.0075 to 8 µg/mL
same,MIC50,Streptococcus pneumoniae [2]; [3],0.03 µg/mL
same,MIC90,Streptococcus pneumoniae [2]; [3],2 µg/mL
same,MIC,Streptococcus pneumoniae [2]; [4],0.0075 to 0.12 µg/mL
same,MIC50,Streptococcus pneumoniae [2]; [4],0.015 µg/mL
same,MIC90,Streptococcus pneumoniae [2]; [4],0.12 µg/mL
same,MIC,Streptococcus pneumoniae [2]; [5],0.015 to 0.5 µg/mL
same,MIC50,Streptococcus pneumoniae [2]; [5],0.015 µg/mL
same,MIC90,Streptococcus pneumoniae [2]; [5],0.03 µg/mL
same,MIC,Streptococcus pneumoniae [2]; multi-drug resistant (n = 16),0.015 to 0.25 µg/mL
same,MIC50,Streptococcus pneumoniae [2]; multi-drug resistant (n = 16),0.03 µg/mL
same,MIC90,Streptococcus pneumoniae [2]; multi-drug resistant (n = 16),0.03 µg/mL
same,MIC,Streptococcus pneumoniae [2]; [6],0.12 to 8 µg/mL
same,MIC50,Streptococcus pneumoniae [2]; [6],2 µg/mL
same,MIC90,Streptococcus pneumoniae [2]; [6],2 µg/mL
same,MIC,Streptococcus pneumoniae [2]; penicillin resistant (n = 18),2 to 8 µg/mL
same,MIC50,Streptococcus pneumoniae [2]; penicillin resistant (n = 18),2 µg/mL
same,MIC90,Streptococcus pneumoniae [2]; penicillin resistant (n = 18),8 µg/mL
same,MIC,Streptococcus pneumoniae [2]; [7],0.0075 to 0.015 µg/mL
same,MIC50,Streptococcus pneumoniae [2]; [7],0.015 µg/mL
same,MIC90,Streptococcus pneumoniae [2]; [7],0.015 µg/mL
same,MIC,Streptococcus pyogenes; [8],0.00375 to 0.015 µg/mL
same,MIC50,Streptococcus pyogenes; [8],0.0075 µg/mL
same,MIC90,Streptococcus pyogenes; [8],0.015 µg/mL
same,MIC,Streptococcus pyogenes; [9],0.00375 to 0.015 µg/mL
same,MIC50,Streptococcus pyogenes; [9],≤ 0.00375 µg/mL
same,MIC90,Streptococcus pyogenes; [9],0.015 µg/mL
same,MIC,Streptococcus pyogenes; [10],0.00375 to 0.01 µg/mL
same,MIC50,Streptococcus pyogenes; [10],≤ 0.00375 µg/mL
same,MIC90,Streptococcus pyogenes; [10],0.015 µg/mL
same,MIC,Streptococcus pyogenes; [11],0.00375 to 0.015 µg/mL
same,MIC50,Streptococcus pyogenes; [11],≤ 0.00375 µg/mL
same,MIC90,Streptococcus pyogenes; [11],0.015 µg/mL
same,MIC,Streptococcus pyogenes; fully susceptible (n = 20),0.0075 to 0.015 µg/mL
same,MIC50,Streptococcus pyogenes; fully susceptible (n = 20),0.0075 µg/mL
same,MIC90,Streptococcus pyogenes; fully susceptible (n = 20),0.015 µg/mL
same,MIC,Streptococcus pyogenes; multi-drug resistant (n = 20),0.0075 to 0.015 µg/mL
same,MIC90,Streptococcus pyogenes; multi-drug resistant (n = 20),0.015 µg/mL
same,MIC,Haemophilus influenzae; [12],0.12 to 4 µg/mL
same,MIC50,Haemophilus influenzae; [12],0.5 µg/mL
same,MIC90,Haemophilus influenzae; [12],1 µg/mL
same,MIC,Haemophilus influenzae; β-lactamase negative (n = 80),0.25 to 1 µg/mL
same,MIC50,Haemophilus influenzae; β-lactamase negative (n = 80),0.5 µg/mL
same,MIC90,Haemophilus influenzae; β-lactamase negative (n = 80),1 µg/mL
same,MIC,Haemophilus influenzae; β-lactamase positive (n = 20),0.12 to 4 µg/mL
same,MIC50,Haemophilus influenzae; β-lactamase positive (n = 20),0.5 µg/mL
same,MIC90,Haemophilus influenzae; β-lactamase positive (n = 20),1 µg/mL
same,MIC,Moraxella catarrhalis; Moraxella catarrhalis (n = 50),0.00375 to 1 µg/mL
same,MIC50,Moraxella catarrhalis; Moraxella catarrhalis (n = 50),0.25 µg/mL
same,MIC90,Moraxella catarrhalis; Moraxella catarrhalis (n = 50),1 µg/mL
same,MIC,Moraxella catarrhalis; β-lactamase negative (n = 13),0.00375 to 1 µg/mL
same,MIC50,Moraxella catarrhalis; β-lactamase negative (n = 13),0.12 µg/mL
same,MIC90,Moraxella catarrhalis; β-lactamase negative (n = 13),0.5 µg/mL
same,MIC,Moraxella catarrhalis; β-lactamase positive (n = 37),0.00375 to 1 µg/mL
same,MIC50,Moraxella catarrhalis; β-lactamase positive (n = 37),0.25 µg/mL
same,MIC90,Moraxella catarrhalis; β-lactamase positive (n = 37),1 µg/mL
same,MIC,Staphylococcus aureus; Staphylococcus aureus (n = 50),0.00375 to 0.25 µg/mL
same,MIC50,Staphylococcus aureus; Staphylococcus aureus (n = 50),0.25 µg/mL
same,MIC90,Staphylococcus aureus; Staphylococcus aureus (n = 50),0.25 µg/mL
same,MIC,Staphylococcus aureus; β-lactamase negative (n = 20),0.0075 to 0.25 µg/mL
same,MIC50,Staphylococcus aureus; β-lactamase negative (n = 20),0.25 µg/mL
same,MIC90,Staphylococcus aureus; β-lactamase negative (n = 20),0.25 µg/mL
same,MIC,Staphylococcus aureus; β-lactamase positive (n = 20),0.06 to 0.25 µg/mL
same,MIC50,Staphylococcus aureus; β-lactamase positive (n = 20),0.25 µg/mL
same,MIC90,Staphylococcus aureus; β-lactamase positive (n = 20),0.25 µg/mL
same,MIC,Staphylococcus aureus; [13],0.06 to 0.25 µg/mL
same,MIC50,Staphylococcus aureus; [13],0.12 µg/mL
same,MIC90,Staphylococcus aureus; [13],0.25 µg/mL
same,MIC50,Klebsiella pneumoniae; Klebsiella pneumoniae (n = 50),2 µg/mL
same,MIC90,Klebsiella pneumoniae; Klebsiella pneumoniae (n = 50),128 µg/mL
same,MIC50,Klebsiella pneumoniae; [14],128 µg/mL
same,MIC90,Klebsiella pneumoniae; [14],> 128 µg/mL
